What was measured:
Assay type in all cases: functional, cell-based
MCF7 = experiment: Antitumor activity against human MCF7 cells assessed as growth inhibition measured after 48 hrs by MTT assay; details: MCF7, 48 h
HepG2 = experiment: Antitumor activity against human HepG2 cells assessed as growth inhibition measured after 48 hrs by MTT assay; details: HepG2, 48 h
HeLa = experiment: Antitumor activity against human HeLa cells assessed as growth inhibition measured after 48 hrs by MTT assay

| Compound | IC50 (MCF7) | IC50 (HepG2) | IC50 (HeLa) |
| --- | --- | --- | --- |
| CC(=O)O[C@H]1C(=O)[C@@]2(C)[C@H]([C@H](OC(=O)c3ccccc3)[C@]3(O)C[C@H](OC(=O)[C@H](O)[C@@H](NC(=O)c4ccccc4)c4ccccc4)C(C)=C1C3(C)C)[C@]1(OC(C)=O)CO[C@@H]1C[C@@H]2O [PACLITAXEL] | 77.2 µM | 61.8 µM | – |
| C/C=C(/C)C(=O)O[C@H]1[C@H](OC(=O)/C(C)=C\C)[C@]2(CO)[C@H](O)[C@H](O)[C@]3(C)C(=CC[C@@H]4[C@@]5(C)CC[C@H](O[C@@H]6O[C@H](C(=O)OC)[C@@H](O)[C@H](O)[C@H]6O[C@@H]6O[C@H](CO)[C@@H](O)[C@H](O)[C@H]6O)C(C)(C)[C@@H]5CC[C@]43C)[C@@H]2CC1(C)C | > 100 µM | 43.7 µM | 81.6 µM |
| C[C@@H]1O[C@@H](O[C@H]2[C@H](OC[C@@]34CC[C@]5(C)C(=CC[C@@H]6[C@@]7(C)CC[C@H](O[C@@H]8O[C@H](CO[C@@H]9O[C@H](CO)[C@@H](O)[C@H](O)[C@H]9O)[C@@H](O)[C@H](O)[C@H]8O)C(C)(C)[C@@H]7CC[C@]65C)[C@@H]3CC(C)(C)[C@@H](O)[C@@H]4O)O[C@H](CO)[C@@H](O)[C@@H]2O)[C@H](O)[C@H](O)[C@H]1O | 25.4 µM | 31.5 µM | 18.8 µM |
| Oc1ccc(/C=C/c2cc(O)cc(O)c2)cc1 [RESVERATROL] | > 100 µM | > 100 µM | 58.9 µM |
| C/C=C(/C)C(=O)O[C@@H]1[C@@H](O)[C@H](O[C@H]2CC[C@]3(C)[C@H]4CC=C5[C@@H]6CC(C)(C)[C@@H](O)[C@H](O)[C@]6(CO[C@@H]6O[C@H](CO[C@@H]7O[C@H](CO)[C@@H](O)[C@H](O)[C@H]7O)[C@@H](O)[C@H](O)[C@H]6O[C@@H]6O[C@@H](C)[C@H](O)[C@@H](O)[C@H]6O)CC[C@@]5(C)[C@]4(C)CC[C@H]3C2(C)C)O[C@H](CO[C@@H]2O[C@H](CO)[C@@H](O)[C@H](O)[C@H]2O)[C@H]1O | > 100 µM | > 100 µM | > 100 µM |
| COc1cc([C@@H]2c3cc4c(cc3[C@@H](O[C@@H]3O[C@@H]5CO[C@@H](C)O[C@H]5[C@H](O)[C@H]3O)[C@H]3COC(=O)[C@H]23)OCO4)cc(OC)c1O [ETOPOSIDE] | 59.8 µM | 9.14 µM | 8.32 µM |
| O=c1[nH]cc(F)c(=O)[nH]1 [FLUOROURACIL] | > 100 µM | > 100 µM | 14.8 µM |
| C[C@@H]1O[C@@H](O[C@H]2[C@H](OC[C@@]34CC[C@]5(C)C(=CC[C@@H]6[C@@]7(C)CC[C@H](O[C@@H]8O[C@H](CO[C@@H]9O[C@H](CO)[C@@H](O)[C@H](O)[C@H]9O)[C@@H](O)[C@H](O)[C@H]8O)C(C)(C)[C@@H]7CC[C@]65C)[C@@H]3CC(C)(C)[C@@H](O)[C@@H]4O)O[C@H](CO[C@@H]3O[C@H](CO)[C@@H](O)[C@H](O)[C@H]3O)[C@@H](O)[C@@H]2O)[C@H](O)[C@H](O)[C@H]1O [XANIFOLIA O54] | 7.29 µM | 7.25 µM | 3.98 µM |
| C/C=C(/C)C(=O)O[C@H]1[C@H](O[C@H]2CC[C@]3(C)[C@H]4CC=C5[C@@H]6CC(C)(C)[C@@H](O)[C@H](O)[C@]6(CO[C@@H]6O[C@H](CO[C@@H]7O[C@H](CO)[C@@H](O)[C@H](O)[C@H]7O)[C@@H](O)[C@H](O)[C@H]6O[C@@H]6O[C@@H](C)[C@H](O)[C@@H](O)[C@H]6O)CC[C@@]5(C)[C@]4(C)CC[C@H]3C2(C)C)O[C@H](CO[C@@H]2O[C@H](CO)[C@@H](O)[C@H](O)[C@H]2O)[C@@H](O)[C@@H]1O | > 100 µM | > 100 µM | > 100 µM |
| C/C=C(/C)C(=O)O[C@H]1[C@H](OC(=O)/C(C)=C\C)[C@]2(CO)[C@H](O)[C@H](O)[C@]3(C)C(=CC[C@@H]4[C@@]5(C)CC[C@H](O[C@@H]6O[C@H](CO[C@@H]7O[C@H](CO)[C@@H](O)[C@H](O)[C@H]7O)[C@@H](O)[C@H](O)[C@H]6O[C@@H]6O[C@@H](CO)[C@H](O)[C@H]6O)C(C)(C)[C@@H]5CC[C@]43C)[C@@H]2CC1(C)C | 9.62 µM | 9.21 µM | 7.56 µM |
